Measurements from US9051250B2, “Polymorphs of N-malonyl-bis(N′-methyl-N′-thiobenzoylhydrazide)” (Synta Pharmaceuticals Corp., priority 2007, dated 2015).
Converted amounts (≈) assume the structure as drawn. Where two headings read alike, the source gives them in different places.

Legend:
[1] = Solubility of Form A and Form D; format: physicochemical; settings: shake time 24 hour; for solubility at 24 h: organic solvent or mixture, thermodynamic from solid
[2] = Reconstitution test in 50:50 Cremophor EL/Ethanol; format: physicochemical; settings: 266 mg in 16.7 ml 50:50 Cremophor EL/Ethanol
Method: As used herein, the reconstitution time is measured in 50:50 Cremophor EL/ethanol solution at ambient temperature (e.g., 18-25° C.) The reconstitution time can be measure according to the procedure described in Example 7. For example, the reconstitution time is measured by dissolving 266 mg of compound 1 in 16.7 mL of 50:50 Cremophor EL/ethanol solution with manual shaking or mechanical shaking at a speed of 232-236 rpm.
50:50 Cremophor EL/Ethanol was prepared and filtered through a 0.45 μm filter and used for testing. 266 mg of compound 1 was weighed into a 50 mL glass vial with a rubber stopper. 16.7 ml of filtered 50:50 Cremophor EL/Ethanol solution was taken by a syringe and needle and added into the vial. The vial was shaken either manually, or on a mechanical shaker at a speed of 232-236 rpm. The reconstitution time was determined with three vials. At different time points, vials were subject to visual observation.

Sieve-cut test = format: physicochemical; settings: 300 micron screen
Method: […] 5 g to 20 g samples were used, depending on the batch size. The mass and percentage of material collected in the receiver were measured.

[3] = system: stage IV metastatic melanoma; settings: in combination with taxol, relative to patients treated with paclitaxel alone; cited from earlier work
[4] = Stability study (appearance, HPLC, IR) in stability chambers; format: physicochemical; settings: for % compd 1 / % compd 2: HPLC
Method: 100 mg±2% of compound 1 was weighed into each 20 mL scintillation vial. The vials were capped with appropriate caps and sealed with Parafilm to prevent moisture entrapment. Stability for the test compounds synthesized from different log was tested. Twelve vials for each lot were prepared and distributed into respective stability chambers to initiate their stability study according to the following protocol.
Stability of the test compound was determined by its appearance and by analytical methods such as HPLC and IR. The IR test was performed for all time points under the two conditions listed above using material in one vial.
Compound 1 contains trace amount of compound 2 shown below. The amounts of compound 1 and 2 present at each time point were analyzed by HPLC.

CN(NC(=O)CC(=O)NN(C)C(=S)c1ccccc1)C(=S)c1ccccc1 [Form D, N-malonyl-bis(N′-methyl-N′-thiobenzoylhydrazide)]
Solubility in 50:50 Cre/EtOH, Vial1 ([1]; 50:50 Cremophor/EtOH, Vial1): 42690 µg/mL (≈ 107 mM) | Solubility in 50:50 Cre/EtOH, Vial2 ([1]; 50:50 Cremophor/EtOH, Vial2): 42740 µg/mL (≈ 107 mM) | Solubility in 50:50 Cre/EtOH, Average ([1]; 50:50 Cremophor/EtOH, average of two vials): 42700 µg/mL (≈ 107 mM) | Solubility in EtOAc, Vial1 ([1]; EtOAc, Vial1): 7410 µg/mL (≈ 18.5 mM) | Solubility in EtOAc, Vial2 ([1]; EtOAc, Vial2): 7500 µg/mL (≈ 18.7 mM) | Solubility in EtOAc, Average ([1]; EtOAc, average of two vials): 7500 µg/mL (≈ 18.7 mM) | Solubility in EtOH, Vial1 ([1]; EtOH, Vial1): 9760 µg/mL (≈ 24.4 mM) | Solubility in EtOH, Vial2 ([1]; EtOH, Vial2): 9750 µg/mL (≈ 24.3 mM) | Solubility in EtOH, Average ([1]; EtOH, average of two vials): 9800 µg/mL (≈ 24.5 mM)

CN(NC(=O)CC(=O)NN(C)C(=S)c1ccccc1)C(=S)c1ccccc1 [compound 2]
Re-constitution time (min) for specific sieve-cut ([2]; 500 micron sieve-cut): >>25, 500 micron min | % by weight that passed through a specific size screen, % (Sieve-cut test): Does not pass

CN(NC(=O)CC(=O)NN(C)C(=S)c1ccccc1)C(=S)c1ccccc1 [Form A, N-malonyl-bis(N′-methyl-N′-thiobenzoylhydrazide)]
solubility at 24 h ([1]; 50:50 Cremophor/ethanol, 50:50 Cremophor/EtOH, Vial1, read-out: Solubility in 50:50 Cre/EtOH, Vial1): 24400 µg/mL (≈ 60.8 mM) | solubility at 24 h ([1]; 50:50 Cremophor/ethanol, 50:50 Cremophor/EtOH, Vial2, read-out: Solubility in 50:50 Cre/EtOH, Vial2): 24300 µg/mL (≈ 60.6 mM) | solubility at 24 h ([1]; 50:50 Cremophor/ethanol, 50:50 Cremophor/EtOH, average of two vials, read-out: Solubility in 50:50 Cre/EtOH, Average): 24300 µg/mL (≈ 60.7 mM) | solubility at 24 h ([1]; ethanol, EtOH, Vial1, read-out: Solubility in EtOH, Vial1): 6280 µg/mL (≈ 15.7 mM) | solubility at 24 h ([1]; ethanol, EtOH, Vial2, read-out: Solubility in EtOH, Vial2): 6450 µg/mL (≈ 16.1 mM) | solubility at 24 h ([1]; ethanol, EtOH, average of two vials, read-out: Solubility in EtOH, Average): 6400 µg/mL (≈ 16 mM) | solubility at 24 h ([1]; ethyl acetate, EtOAc, Vial1, read-out: Solubility in EtOAc, Vial1): 4690 µg/mL (≈ 11.7 mM) | solubility at 24 h ([1]; ethyl acetate, EtOAc, Vial2, read-out: Solubility in EtOAc, Vial2): 4690 µg/mL (≈ 11.7 mM) | solubility at 24 h ([1]; ethyl acetate, EtOAc, average of two vials, read-out: Solubility in EtOAc, Average): 4700 µg/mL (≈ 11.7 mM)

CN(NC(=O)CC(=O)NN(C)C(=S)c1ccccc1)C(=S)c1ccccc1 [Crystal Habit 1, N-malonyl-bis(N′-methyl-N′-thiobenzoylhydrazide)]
Re-constitution time (min) for specific sieve-cut ([2]; 500 micron sieve-cut): greater than 25 min

CN(NC(=O)CC(=O)NN(C)C(=S)c1ccccc1)C(=S)c1ccccc1 [compound 1, N-malonyl-bis(N′-methyl-N′-thiobenzoylhydrazide)]
Re-constitution time (min) for specific sieve-cut ([2]; 500 micron sieve-cut): >>25, 500 micron min | % by weight that passed through a specific size screen, % (Sieve-cut test): Does not pass | time to progression [3]: increase the time to progression

CN(NC(=O)CC(=O)NN(C)C(=S)c1ccccc1)C(=S)c1ccccc1 [Crystal Habit 2, N-malonyl-bis(N′-methyl-N′-thiobenzoylhydrazide)]
Re-constitution time (min) for specific sieve-cut ([2]; 150 micron sieve-cut): less than or equal to 15 min

CN(NC(=O)CC(=O)NN(C)C(=S)c1ccccc1)C(=S)c1ccccc1 [Lot #2, N-malonyl-bis(N′-methyl-N′-thiobenzoylhydrazide)]
Appearance ([4]; 25° C./60% RH, 0 months): Pale-yellow | FT-IR ([4]; 25° C./60% RH, 0 months): Form D | Appearance ([4]; 25° C./60% RH, 1 month): Pale-yellow | FT-IR ([4]; 25° C./60% RH, 1 month): Form D | Appearance ([4]; 25° C./60% RH, 3 months): Pale-yellow | FT-IR ([4]; 25° C./60% RH, 3 months): Form D | Appearance ([4]; 25° C./60% RH, 6 months): Pale-yellow | FT-IR ([4]; 25° C./60% RH, 6 months): Form D | Appearance ([4]; 25° C./60% RH, 9 months): Pale-yellow | FT-IR ([4]; 25° C./60% RH, 9 months): Form D | Appearance ([4]; 25° C./60% RH, 12 months): Pale-yellow | FT-IR ([4]; 25° C./60% RH, 12 months): Form D | Appearance ([4]; 40° C./75% RH, 0 months): Pale- | FT-IR ([4]; 40° C./75% RH, 0 months): Form D | Appearance ([4]; 40° C./75% RH, 0.5 months): Pale-yellow | FT-IR ([4]; 40° C./75% RH, 0.5 months): Form D | Appearance ([4]; 40° C./75% RH, 1 month): Pale- | FT-IR ([4]; 40° C./75% RH, 1 month): Form D | Appearance ([4]; 40° C./75% RH, 3 months): Pale-yellow | FT-IR ([4]; 40° C./75% RH, 3 months): Form D | Appearance ([4]; 40° C./75% RH, 6 months): Pale- | FT-IR ([4]; 40° C./75% RH, 6 months): Form D | % compd 1 ([4]; 25° C./60% RH, 0 months): 99.7% | % compd 2 ([4]; 25° C./60% RH, 0 months): 0.15% | % compd 1 ([4]; 25° C./60% RH, 1 month): 98.6% | % compd 2 ([4]; 25° C./60% RH, 1 month): 0.14% | % compd 1 ([4]; 25° C./60% RH, 3 months): 100.2% | % compd 2 ([4]; 25° C./60% RH, 3 months): 0.15% | % compd 1 ([4]; 25° C./60% RH, 6 months): 99.6% | % compd 2 ([4]; 25° C./60% RH, 6 months): 0.13% | % compd 1 ([4]; 25° C./60% RH, 9 months): 98.9% | % compd 2 ([4]; 25° C./60% RH, 9 months): 0.13% | % compd 1 ([4]; 25° C./60% RH, 12 months): 99.7% | % compd 2 ([4]; 25° C./60% RH, 12 months): 0.13% | % compd 1 ([4]; 40° C./75% RH, 0 months): 99.7% | % compd 2 ([4]; 40° C./75% RH, 0 months): 0.15% | % compd 1 ([4]; 40° C./75% RH, 0.5 months): 99.6% | % compd 2 ([4]; 40° C./75% RH, 0.5 months): 0.14% | % compd 1 ([4]; 40° C./75% RH, 1 month): 100.3% | % compd 2 ([4]; 40° C./75% RH, 1 month): 0.16% | % compd 1 ([4]; 40° C./75% RH, 3 months): 100.2% | % compd 2 ([4]; 40° C./75% RH, 3 months): 0.19% | % compd 1 ([4]; 40° C./75% RH, 6 months): 101.7% | % compd 2 ([4]; 40° C./75% RH, 6 months): 0.18%

CN(NC(=O)CC(=O)NN(C)C(=S)c1ccccc1)C(=S)c1ccccc1 [Lot #1, N-malonyl-bis(N′-methyl-N′-thiobenzoylhydrazide)]
Appearance ([4]; 25° C./60% RH, 0 months): Pale-yellow | FT-IR ([4]; 25° C./60% RH, 0 months): Form D | Appearance ([4]; 25° C./60% RH, 1 month): Pale-yellow | FT-IR ([4]; 25° C./60% RH, 1 month): Form D | Appearance ([4]; 25° C./60% RH, 3 months): Pale-yellow | FT-IR ([4]; 25° C./60% RH, 3 months): Form D | Appearance ([4]; 25° C./60% RH, 6 months): Pale yellow | FT-IR ([4]; 25° C./60% RH, 6 months): Form D | Appearance ([4]; 25° C./60% RH, 9 months): Pale yellow | FT-IR ([4]; 25° C./60% RH, 9 months): Form D | Appearance ([4]; 25° C./60% RH, 12 months): Pale yellow | FT-IR ([4]; 25° C./60% RH, 12 months): Form D | Appearance ([4]; 40° C./75% RH, 0 months): Pale- | FT-IR ([4]; 40° C./75% RH, 0 months): Form D | Appearance ([4]; 40° C./75% RH, 0.5 months): Pale-yellow | FT-IR ([4]; 40° C./75% RH, 0.5 months): Form D | Appearance ([4]; 40° C./75% RH, 1 month): Pale- | FT-IR ([4]; 40° C./75% RH, 1 month): Form D | Appearance ([4]; 40° C./75% RH, 3 months): Pale-yellow | FT-IR ([4]; 40° C./75% RH, 3 months): Form D | Appearance ([4]; 40° C./75% RH, 6 months): Pale- | FT-IR ([4]; 40° C./75% RH, 6 months): Form D | % compd 1 ([4]; 25° C./60% RH, 0 months): 99.0% | % compd 2 ([4]; 25° C./60% RH, 0 months): 1.30% | % compd 1 ([4]; 25° C./60% RH, 1 month): 98.8% | % compd 2 ([4]; 25° C./60% RH, 1 month): 1.28% | % compd 1 ([4]; 25° C./60% RH, 3 months): 99.0% | % compd 2 ([4]; 25° C./60% RH, 3 months): 1.31% | % compd 1 ([4]; 25° C./60% RH, 6 months): 99.0% | % compd 2 ([4]; 25° C./60% RH, 6 months): 1.28% | % compd 1 ([4]; 25° C./60% RH, 9 months): 97.5% | % compd 2 ([4]; 25° C./60% RH, 9 months): 1.38% | % compd 1 ([4]; 25° C./60% RH, 12 months): 98.0% | % compd 2 ([4]; 25° C./60% RH, 12 months): 1.33% | % compd 1 ([4]; 40° C./75% RH, 0 months): 99.0% | % compd 2 ([4]; 40° C./75% RH, 0 months): 1.30% | % compd 1 ([4]; 40° C./75% RH, 0.5 months): 99.7% | % compd 2 ([4]; 40° C./75% RH, 0.5 months): 1.28% | % compd 1 ([4]; 40° C./75% RH, 1 month): 95.8% | % compd 2 ([4]; 40° C./75% RH, 1 month): 1.28% | % compd 1 ([4]; 40° C./75% RH, 3 months): 98.9% | % compd 2 ([4]; 40° C./75% RH, 3 months): 1.33% | % compd 1 ([4]; 40° C./75% RH, 6 months): 98.4% | % compd 2 ([4]; 40° C./75% RH, 6 months): 1.31%
